ChEMBL document CHEMBL4354805, “Discovery of MK-8719, a Potent O-GlcNAcase Inhibitor as a Potential Treatment for Tauopathies” (J Med Chem, 2019)

Experiments:
[1] = target: T1, Protein O-GlcNAcase (Homo sapiens, UniProt O60502); experiment: Inhibition of recombinant human OGA
T1 sequence (O60502 whole entry): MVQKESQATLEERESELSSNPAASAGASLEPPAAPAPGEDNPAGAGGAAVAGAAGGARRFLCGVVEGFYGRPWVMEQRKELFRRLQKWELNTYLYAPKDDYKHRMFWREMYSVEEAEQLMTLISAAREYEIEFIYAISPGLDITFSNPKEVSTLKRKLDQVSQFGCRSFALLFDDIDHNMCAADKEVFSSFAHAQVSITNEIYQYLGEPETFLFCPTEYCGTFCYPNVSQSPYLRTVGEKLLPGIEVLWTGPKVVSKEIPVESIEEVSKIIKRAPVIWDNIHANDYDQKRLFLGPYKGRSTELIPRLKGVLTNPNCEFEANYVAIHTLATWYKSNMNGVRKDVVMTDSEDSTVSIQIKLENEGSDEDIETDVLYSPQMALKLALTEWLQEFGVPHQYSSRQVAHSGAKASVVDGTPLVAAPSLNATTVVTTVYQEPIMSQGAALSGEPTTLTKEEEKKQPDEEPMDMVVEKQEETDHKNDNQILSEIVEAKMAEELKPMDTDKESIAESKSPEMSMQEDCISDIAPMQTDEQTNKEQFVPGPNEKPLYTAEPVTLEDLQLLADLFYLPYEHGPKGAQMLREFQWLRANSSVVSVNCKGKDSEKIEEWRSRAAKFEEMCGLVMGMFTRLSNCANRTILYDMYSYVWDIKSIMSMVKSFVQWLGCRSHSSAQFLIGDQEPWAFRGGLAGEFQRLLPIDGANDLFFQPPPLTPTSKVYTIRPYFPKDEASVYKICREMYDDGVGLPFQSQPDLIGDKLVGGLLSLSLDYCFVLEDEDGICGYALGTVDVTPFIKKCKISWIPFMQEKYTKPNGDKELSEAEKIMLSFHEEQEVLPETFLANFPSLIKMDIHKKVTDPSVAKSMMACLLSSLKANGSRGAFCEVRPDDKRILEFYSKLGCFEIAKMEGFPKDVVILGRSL

[2] = target: T2, Beta-hexosaminidase subunit beta (Homo sapiens, UniProt P07686); experiment: Inhibition of human beta hexosaminidase assessed as inhibitory constant using 4-methylumbelliferyl N-acetyl-beta-D-glucosaminide dihydrate as substrate measured every 60 sec for 45 mins by fluorescence spectrophotometry
T2 sequence (P07686 whole entry): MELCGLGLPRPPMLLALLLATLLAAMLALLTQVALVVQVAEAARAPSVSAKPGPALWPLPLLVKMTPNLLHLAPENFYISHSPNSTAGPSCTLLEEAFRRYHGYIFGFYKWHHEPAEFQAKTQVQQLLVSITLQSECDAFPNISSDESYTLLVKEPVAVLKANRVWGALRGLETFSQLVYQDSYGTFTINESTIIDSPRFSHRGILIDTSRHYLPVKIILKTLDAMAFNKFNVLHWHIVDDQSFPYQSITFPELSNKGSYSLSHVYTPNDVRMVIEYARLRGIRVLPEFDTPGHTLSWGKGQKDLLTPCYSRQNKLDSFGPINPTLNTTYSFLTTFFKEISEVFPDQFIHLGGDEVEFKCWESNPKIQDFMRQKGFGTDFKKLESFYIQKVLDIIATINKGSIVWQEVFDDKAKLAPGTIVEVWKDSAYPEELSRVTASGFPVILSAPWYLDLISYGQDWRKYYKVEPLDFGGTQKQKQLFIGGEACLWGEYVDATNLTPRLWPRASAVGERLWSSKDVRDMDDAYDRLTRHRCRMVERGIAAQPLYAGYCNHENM

[3] = tested on: MDR1; experiment: Apparent permeability in pig LLC-PK1 cells transfected with MDR1; type: ADME, cell-based, Sus scrofa
[4] = Half life in Wistar Han rat at 2 mg/kg, iv; type: ADME, organism-based; conditions: in vivo
[5] = Oral bioavailability in Wistar Han rat at 3 mg/kg; type: ADME, organism-based; conditions: in vivo
[6] = Volume of distribution at steady state in Wistar Han rat at 2 mg/kg, iv or 3 mg/kg, po; type: ADME, organism-based; conditions: in vivo, read-out: Vdss
[7] = target: T3, Protein O-GlcNAcase (Rattus norvegicus, UniProt Q8VIJ5); experiment: Inhibition of OGA in rat PC12 cells assessed as OGlcNAcylated protein level incubated for 24 hrs by ELISA; type: cell-based
T3 sequence (Q8VIJ5 whole entry): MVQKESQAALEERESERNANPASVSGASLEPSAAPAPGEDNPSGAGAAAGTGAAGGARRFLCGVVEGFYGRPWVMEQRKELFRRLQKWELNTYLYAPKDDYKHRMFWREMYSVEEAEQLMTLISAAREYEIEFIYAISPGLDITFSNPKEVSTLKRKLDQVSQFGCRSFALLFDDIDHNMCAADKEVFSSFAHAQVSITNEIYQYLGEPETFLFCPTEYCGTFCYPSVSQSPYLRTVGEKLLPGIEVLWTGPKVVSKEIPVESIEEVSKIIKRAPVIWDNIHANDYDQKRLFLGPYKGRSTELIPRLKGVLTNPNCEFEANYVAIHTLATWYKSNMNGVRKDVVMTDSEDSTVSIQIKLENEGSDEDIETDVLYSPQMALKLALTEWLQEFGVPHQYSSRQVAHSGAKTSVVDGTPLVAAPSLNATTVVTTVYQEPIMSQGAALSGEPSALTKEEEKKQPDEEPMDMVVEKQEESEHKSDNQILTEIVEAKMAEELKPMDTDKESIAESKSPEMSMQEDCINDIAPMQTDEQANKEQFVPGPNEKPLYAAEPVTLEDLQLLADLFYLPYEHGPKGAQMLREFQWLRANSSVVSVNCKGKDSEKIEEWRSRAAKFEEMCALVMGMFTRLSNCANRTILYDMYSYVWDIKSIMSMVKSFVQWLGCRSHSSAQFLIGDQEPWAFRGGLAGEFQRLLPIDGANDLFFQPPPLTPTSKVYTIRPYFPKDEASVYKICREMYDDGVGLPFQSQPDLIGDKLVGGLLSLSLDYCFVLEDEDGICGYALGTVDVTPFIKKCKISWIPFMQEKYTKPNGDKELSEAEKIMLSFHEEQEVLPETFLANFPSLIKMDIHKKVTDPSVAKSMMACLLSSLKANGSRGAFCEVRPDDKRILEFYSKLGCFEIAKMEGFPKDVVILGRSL

[8] = AUCN in Wistar Han rat at 3 mg/kg, po; type: ADME, organism-based; conditions: in vivo
[9] = Clearance in Wistar Han rat at 2 mg/kg, iv; type: ADME, organism-based; conditions: in vivo
[10] = target: Voltage-gated inwardly rectifying potassium channel KCNH2 (Homo sapiens, UniProt Q12809); experiment: Displacement of MK-0499 from human ERG
[11] = target: Voltage-dependent L-type calcium channel subunit alpha-1C (Homo sapiens, UniProt Q13936); experiment: Inhibition of Cav1.2 (unknown origin)
[12] = target: Cytochrome P450 3A4 (Homo sapiens, UniProt P08684); experiment: Inhibition of CYP3A4 (unknown origin); type: ADME
[13] = target: Sodium channel protein type 5 subunit alpha (Homo sapiens, UniProt Q14524); experiment: Inhibition of Nav1.5 (unknown origin)
[14] = target: Cytochrome P450 2C9 (Homo sapiens, UniProt P11712); experiment: Inhibition of CYP2C9 (unknown origin); type: ADME
[15] = target: Cytochrome P450 2D6 (Homo sapiens, UniProt P10635); experiment: Inhibition of CYP2D6 (unknown origin); type: ADME
[16] = target: T4, Nuclear receptor subfamily 1 group I member 2 (Homo sapiens, UniProt O75469); experiment: Activation of PXR (unknown origin) assessed as CYP3A4 induction
T4 sequence (O75469 whole entry): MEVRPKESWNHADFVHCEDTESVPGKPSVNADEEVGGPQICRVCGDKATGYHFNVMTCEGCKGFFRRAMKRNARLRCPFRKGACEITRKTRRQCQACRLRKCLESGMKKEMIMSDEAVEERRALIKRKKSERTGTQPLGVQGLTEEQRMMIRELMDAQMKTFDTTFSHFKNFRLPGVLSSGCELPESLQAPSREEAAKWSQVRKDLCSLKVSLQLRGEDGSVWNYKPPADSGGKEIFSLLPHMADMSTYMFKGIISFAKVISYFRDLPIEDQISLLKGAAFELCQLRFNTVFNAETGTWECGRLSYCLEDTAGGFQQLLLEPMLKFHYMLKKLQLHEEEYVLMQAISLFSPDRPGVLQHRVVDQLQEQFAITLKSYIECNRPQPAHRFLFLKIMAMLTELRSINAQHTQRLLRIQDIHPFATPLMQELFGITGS

Cytochrome P450 3A4, sequence (P08684 whole entry): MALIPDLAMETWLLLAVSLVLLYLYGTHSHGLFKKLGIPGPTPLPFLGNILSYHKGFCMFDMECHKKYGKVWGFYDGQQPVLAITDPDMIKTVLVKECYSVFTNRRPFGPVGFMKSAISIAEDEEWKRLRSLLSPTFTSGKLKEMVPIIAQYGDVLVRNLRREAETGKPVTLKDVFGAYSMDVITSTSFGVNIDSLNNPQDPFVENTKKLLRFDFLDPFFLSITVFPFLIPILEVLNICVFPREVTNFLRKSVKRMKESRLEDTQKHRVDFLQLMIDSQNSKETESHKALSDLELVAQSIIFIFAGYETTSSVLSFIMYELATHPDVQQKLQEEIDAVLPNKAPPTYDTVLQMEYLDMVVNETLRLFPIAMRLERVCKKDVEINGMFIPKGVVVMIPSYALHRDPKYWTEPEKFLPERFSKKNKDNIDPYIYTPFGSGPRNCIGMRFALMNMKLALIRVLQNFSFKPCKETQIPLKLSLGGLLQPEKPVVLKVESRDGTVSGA
Voltage-dependent L-type calcium channel subunit alpha-1C, sequence (Q13936 whole entry): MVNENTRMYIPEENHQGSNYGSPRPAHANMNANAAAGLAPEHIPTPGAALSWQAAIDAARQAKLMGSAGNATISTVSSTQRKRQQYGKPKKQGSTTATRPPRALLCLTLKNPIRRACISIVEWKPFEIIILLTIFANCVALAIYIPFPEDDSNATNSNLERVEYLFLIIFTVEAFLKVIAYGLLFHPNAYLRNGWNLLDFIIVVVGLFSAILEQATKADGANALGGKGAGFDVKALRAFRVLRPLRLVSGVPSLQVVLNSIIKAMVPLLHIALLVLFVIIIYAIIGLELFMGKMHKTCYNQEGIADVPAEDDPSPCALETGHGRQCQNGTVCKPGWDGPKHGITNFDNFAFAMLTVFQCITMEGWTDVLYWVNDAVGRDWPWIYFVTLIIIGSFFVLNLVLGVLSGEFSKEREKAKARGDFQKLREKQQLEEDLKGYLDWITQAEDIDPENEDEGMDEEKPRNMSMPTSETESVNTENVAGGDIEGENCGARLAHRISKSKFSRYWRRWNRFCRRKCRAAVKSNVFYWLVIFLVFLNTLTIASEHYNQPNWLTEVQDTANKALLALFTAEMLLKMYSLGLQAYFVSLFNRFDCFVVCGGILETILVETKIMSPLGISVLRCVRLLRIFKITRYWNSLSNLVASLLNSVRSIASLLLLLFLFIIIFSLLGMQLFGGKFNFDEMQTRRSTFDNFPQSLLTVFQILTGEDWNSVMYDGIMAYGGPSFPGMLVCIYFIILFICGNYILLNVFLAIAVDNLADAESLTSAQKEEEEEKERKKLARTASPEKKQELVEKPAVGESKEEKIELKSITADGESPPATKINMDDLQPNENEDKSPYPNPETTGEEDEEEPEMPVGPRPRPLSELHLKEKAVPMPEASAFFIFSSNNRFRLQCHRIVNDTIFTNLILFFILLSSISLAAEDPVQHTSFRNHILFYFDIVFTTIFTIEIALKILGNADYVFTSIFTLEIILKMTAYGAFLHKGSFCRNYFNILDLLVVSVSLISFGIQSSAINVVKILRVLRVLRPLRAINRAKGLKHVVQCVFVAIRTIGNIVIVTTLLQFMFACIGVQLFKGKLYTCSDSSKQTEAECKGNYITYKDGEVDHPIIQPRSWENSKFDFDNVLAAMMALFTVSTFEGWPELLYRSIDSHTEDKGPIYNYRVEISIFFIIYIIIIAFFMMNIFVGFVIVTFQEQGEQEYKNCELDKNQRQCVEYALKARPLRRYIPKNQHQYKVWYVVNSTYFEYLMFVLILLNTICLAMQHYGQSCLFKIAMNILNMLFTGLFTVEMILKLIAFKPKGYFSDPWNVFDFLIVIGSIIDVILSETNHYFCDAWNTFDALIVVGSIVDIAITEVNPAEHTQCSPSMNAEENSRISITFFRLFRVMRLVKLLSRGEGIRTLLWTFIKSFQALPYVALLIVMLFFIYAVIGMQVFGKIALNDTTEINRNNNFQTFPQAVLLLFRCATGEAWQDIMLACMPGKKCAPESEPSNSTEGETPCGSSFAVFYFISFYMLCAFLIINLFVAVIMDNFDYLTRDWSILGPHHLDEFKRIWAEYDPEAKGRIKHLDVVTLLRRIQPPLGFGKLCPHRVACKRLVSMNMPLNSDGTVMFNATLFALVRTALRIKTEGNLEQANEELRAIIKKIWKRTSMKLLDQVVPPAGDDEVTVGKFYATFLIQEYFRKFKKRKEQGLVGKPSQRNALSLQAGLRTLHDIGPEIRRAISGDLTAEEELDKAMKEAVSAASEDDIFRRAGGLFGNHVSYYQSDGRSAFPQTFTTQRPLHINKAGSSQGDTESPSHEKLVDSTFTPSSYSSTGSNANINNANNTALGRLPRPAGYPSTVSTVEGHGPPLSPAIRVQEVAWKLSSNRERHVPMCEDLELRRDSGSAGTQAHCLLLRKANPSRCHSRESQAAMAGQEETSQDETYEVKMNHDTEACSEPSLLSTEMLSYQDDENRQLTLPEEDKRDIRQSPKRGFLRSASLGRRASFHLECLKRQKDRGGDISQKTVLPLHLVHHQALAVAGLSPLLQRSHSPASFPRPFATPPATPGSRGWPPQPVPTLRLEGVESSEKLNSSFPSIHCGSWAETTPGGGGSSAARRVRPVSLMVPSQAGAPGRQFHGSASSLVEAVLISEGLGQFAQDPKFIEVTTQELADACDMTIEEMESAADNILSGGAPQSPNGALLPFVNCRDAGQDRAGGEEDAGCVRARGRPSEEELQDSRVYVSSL
Voltage-gated inwardly rectifying potassium channel KCNH2, sequence (Q12809 whole entry): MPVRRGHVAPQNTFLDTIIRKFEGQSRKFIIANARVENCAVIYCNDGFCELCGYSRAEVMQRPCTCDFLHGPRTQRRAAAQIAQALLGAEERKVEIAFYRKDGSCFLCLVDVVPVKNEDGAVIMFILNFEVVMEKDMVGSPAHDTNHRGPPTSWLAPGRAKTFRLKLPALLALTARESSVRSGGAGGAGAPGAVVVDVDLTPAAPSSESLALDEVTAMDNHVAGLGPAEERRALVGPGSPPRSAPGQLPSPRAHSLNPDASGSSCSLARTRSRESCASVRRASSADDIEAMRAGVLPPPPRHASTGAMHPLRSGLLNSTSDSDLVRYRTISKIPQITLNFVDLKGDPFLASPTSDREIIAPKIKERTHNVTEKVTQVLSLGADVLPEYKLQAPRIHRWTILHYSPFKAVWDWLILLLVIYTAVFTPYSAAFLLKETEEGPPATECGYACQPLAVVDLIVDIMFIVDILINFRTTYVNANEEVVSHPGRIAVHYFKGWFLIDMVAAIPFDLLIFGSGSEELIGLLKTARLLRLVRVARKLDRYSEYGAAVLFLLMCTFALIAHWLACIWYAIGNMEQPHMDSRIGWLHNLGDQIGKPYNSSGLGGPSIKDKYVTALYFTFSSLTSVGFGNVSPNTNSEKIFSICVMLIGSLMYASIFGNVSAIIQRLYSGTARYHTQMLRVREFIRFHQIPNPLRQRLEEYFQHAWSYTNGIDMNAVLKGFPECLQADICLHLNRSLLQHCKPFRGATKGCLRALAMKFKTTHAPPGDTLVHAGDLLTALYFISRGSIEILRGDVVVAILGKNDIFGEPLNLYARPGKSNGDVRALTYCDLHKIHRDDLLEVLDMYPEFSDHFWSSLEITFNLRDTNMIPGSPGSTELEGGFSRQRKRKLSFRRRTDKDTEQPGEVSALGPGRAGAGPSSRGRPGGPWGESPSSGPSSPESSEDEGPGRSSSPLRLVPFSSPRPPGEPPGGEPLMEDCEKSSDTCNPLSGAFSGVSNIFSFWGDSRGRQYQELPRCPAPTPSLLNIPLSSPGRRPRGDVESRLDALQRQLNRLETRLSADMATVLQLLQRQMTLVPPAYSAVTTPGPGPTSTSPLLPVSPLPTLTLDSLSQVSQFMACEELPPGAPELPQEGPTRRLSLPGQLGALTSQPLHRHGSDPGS
Cytochrome P450 2D6, sequence (P10635 whole entry): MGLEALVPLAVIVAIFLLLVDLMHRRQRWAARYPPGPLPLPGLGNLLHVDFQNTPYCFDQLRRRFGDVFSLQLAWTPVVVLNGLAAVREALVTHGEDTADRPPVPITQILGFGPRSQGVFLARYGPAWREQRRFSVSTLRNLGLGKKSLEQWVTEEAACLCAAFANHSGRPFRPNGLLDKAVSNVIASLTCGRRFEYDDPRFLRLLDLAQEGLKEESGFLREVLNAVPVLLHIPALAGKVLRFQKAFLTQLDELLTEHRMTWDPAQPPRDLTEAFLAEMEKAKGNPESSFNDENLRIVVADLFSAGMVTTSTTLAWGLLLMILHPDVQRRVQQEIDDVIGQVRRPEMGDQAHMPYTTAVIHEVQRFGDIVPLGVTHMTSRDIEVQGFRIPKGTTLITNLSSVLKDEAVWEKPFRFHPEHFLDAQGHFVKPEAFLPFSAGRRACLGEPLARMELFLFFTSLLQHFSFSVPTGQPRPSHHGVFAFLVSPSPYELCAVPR
Cytochrome P450 2C9, sequence (P11712 whole entry): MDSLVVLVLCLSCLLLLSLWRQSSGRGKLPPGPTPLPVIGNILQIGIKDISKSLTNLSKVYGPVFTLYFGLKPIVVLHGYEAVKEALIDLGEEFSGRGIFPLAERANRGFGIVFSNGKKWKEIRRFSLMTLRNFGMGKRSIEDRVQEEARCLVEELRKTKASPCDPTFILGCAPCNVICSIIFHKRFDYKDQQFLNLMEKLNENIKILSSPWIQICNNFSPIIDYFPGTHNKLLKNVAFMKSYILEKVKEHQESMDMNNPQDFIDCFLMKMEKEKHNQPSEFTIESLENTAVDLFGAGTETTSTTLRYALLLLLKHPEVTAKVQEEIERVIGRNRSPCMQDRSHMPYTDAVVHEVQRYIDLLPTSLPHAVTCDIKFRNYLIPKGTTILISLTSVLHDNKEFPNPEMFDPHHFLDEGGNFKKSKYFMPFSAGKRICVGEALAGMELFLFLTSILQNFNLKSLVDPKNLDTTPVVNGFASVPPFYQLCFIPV

Ki [1] [µM]	Ki [2] [µM]	Papp [3] [×10⁻⁶ cm/s]	Compound	other results
> 3	> 10		NC1=N[C@@H]2C[C@H](O)[C@@H](CO)O[C@@H]2S1	
0.0056	> 10	2.2	OC[C@H]1O[C@@H]2SC(NCCF)=N[C@@H]2[C@@H](O)[C@@H]1O	half-life [4]: 1.29 h; bioavailability [5]: 48.6%; Vd [6]: 1.33 L/kg; EC50 [7]: 0.509 µM; AUC/dose [8]: 0.903 µM·kg·h/mg; clearance [9]: 33.6 mL/min/kg
0.003	8.1		CNC1=N[C@@H]2[C@@H](F)[C@H](O)[C@@H](CO)O[C@@H]2S1	EC50 [7]: 0.307 µM
0.014	> 10		CCCNC1=N[C@@H]2[C@@H](F)[C@H](O)[C@@H](CO)O[C@@H]2S1	half-life [4]: 1.69 h; bioavailability [5]: 30.1%; Vd [6]: 1.92 L/kg; EC50 [7]: 0.445 µM; AUC/dose [8]: 0.394 µM·kg·h/mg; clearance [9]: 48.1 mL/min/kg
	> 10		OC[C@H]1O[C@@H]2SC(N3CC[C@@H](F)C3)=N[C@@H]2[C@@H](O)[C@@H]1O	
1.8	> 10		OC[C@H]1O[C@@H]2SC(N3CCCCC3)=N[C@@H]2[C@@H](O)[C@@H]1O	
0.026	> 10	18	O[C@H]1[C@H](O)[C@@H](C(F)F)O[C@@H]2SC(N3CCC3)=N[C@H]12	
0.074	> 10	12	C=CCNC1=N[C@@H]2[C@@H](O)[C@H](O)[C@@H](C(F)F)O[C@@H]2S1	
> 3			CCNC1=N[C@@H]2[C@@H](O)[C@H](OC)[C@@H](CO)O[C@@H]2S1	IC50 [10]: > 30 µM; IC50 [11]: > 30 µM; IC50 [12]: > 50 µM; IC50 [13]: > 30 µM; IC50 [14]: > 50 µM; IC50 [15]: > 50 µM; EC50 [16]: > 30 µM
0.27	> 10		CCNC1=N[C@@H]2[C@@H](OC)[C@H](O)[C@@H](CO)O[C@@H]2S1	IC50 [10]: > 30 µM; IC50 [11]: > 30 µM; IC50 [12]: > 50 µM; IC50 [13]: > 30 µM; IC50 [14]: > 50 µM; IC50 [15]: > 50 µM; EC50 [16]: > 30 µM
> 3	> 10	31	CN(C)C1=N[C@@H]2C[C@H](O)[C@@H](C(F)F)O[C@@H]2S1	
0.058	> 10	22	CNC1=N[C@@H]2[C@@H](F)[C@H](O)[C@@H](C(F)F)O[C@@H]2S1	
0.2	> 10		O[C@H]1[C@H](O)[C@@H](CF)O[C@@H]2SC(N3CCC3)=N[C@H]12	
	4.5	0.8	C=CCN(C)C1=N[C@@H]2[C@@H](O)[C@H](O)[C@@H](CO)O[C@@H]2S1	half-life [4]: 4.03 h; bioavailability [5]: 108%; Vd [6]: 16.1 L/kg; AUC/dose [8]: 0.538 µM·kg·h/mg; clearance [9]: 45.8 mL/min/kg
> 3			OC[C@H]1O[C@@H]2SC(N3CC(F)C3)=N[C@@H]2[C@@H](O)[C@@H]1O	
0.05	> 10		CNC1=N[C@@H]2[C@@H](F)[C@H](O)[C@@H](CF)O[C@@H]2S1	
0.76	> 10	9.2	NC1=N[C@@H]2[C@@H](O)[C@H](O)[C@@H](C(F)F)O[C@@H]2S1	EC50 [7]: 2.4 µM
0.072	> 10	2.4	CC1CN(C2=N[C@@H]3[C@@H](O)[C@H](O)[C@@H](CO)O[C@@H]3S2)C1	
0.18	> 10		C=CCNC1=N[C@@H]2[C@@H](O)[C@H](O)[C@@H](CF)O[C@@H]2S1	
	> 10		CN(C)C1=N[C@@H]2C[C@H](O)[C@@H](CO)O[C@@H]2S1	half-life [4]: 1.95 h; bioavailability [5]: 80.1%; Vd [6]: 2.49 L/kg; AUC/dose [8]: 2.26 µM·kg·h/mg; clearance [9]: 25.7 mL/min/kg
0.05	> 10	2.5	CCCNC1=N[C@@H]2C[C@H](O)[C@@H](CO)O[C@@H]2S1	EC50 [7]: 0.224 µM
0.069			CCNC1=N[C@@H]2[C@@H](O)[C@H](O)[C@@H](C)O[C@@H]2S1	IC50 [10]: > 30 µM; IC50 [11]: > 30 µM; IC50 [12]: > 50 µM; IC50 [13]: > 30 µM; IC50 [14]: > 50 µM; IC50 [15]: > 50 µM; EC50 [16]: > 30 µM
> 3	> 10		OC[C@H]1O[C@@H]2SC(N3CCC(F)CC3)=N[C@@H]2[C@@H](O)[C@@H]1O	
	> 10		OC[C@H]1O[C@@H]2SC(N3CCCC3)=N[C@@H]2[C@@H](O)[C@@H]1O	
0.19			CCNC1=N[C@@H]2[C@@H](O)[C@H](O)[C@@H](COC)O[C@@H]2S1	IC50 [10]: > 30 µM; IC50 [11]: > 30 µM; IC50 [12]: > 50 µM; IC50 [13]: > 30 µM; IC50 [14]: > 50 µM; IC50 [15]: > 50 µM; EC50 [16]: > 30 µM
0.041	> 10		CN(C)C1=N[C@@H]2[C@@H](F)[C@H](O)[C@@H](CO)O[C@@H]2S1	

Compound	Ki [1] [µM]	Ki [2] [µM]	Papp [3] [×10⁻⁶ cm/s]	other results
NC1=N[C@@H]2[C@@H](O)[C@H](O)[C@@H](CF)O[C@@H]2S1	1.2			
